# From patent publication US10420341B2, “Herbicidal phenylpyrimidines” (BASF SE, priority 2015, dated 2019)
# Key:
# APESV = assay: greenhouse pre-emergence herbicidal test; type: in vivo, Apera spica-venti; details: pre-emergence method, scale from 0 to 100
# Excerpt: (§1) The seeds of the test plants were sown separately for each species. For the pre-emergence treatment, the active ingredients, which had been suspended or emulsified in water, were applied directly after sowing by means of finely distributing nozzles. The containers were irrigated gently to promote germination and growth and subsequently covered with transparent plastic hoods until the plants had rooted. This cover caused uniform germination of the test plants, unless this had been impaired by the active ingredients. Depending on the species, the plants were kept at 10-25° C. or 20-35° C., respectively. The test period extended over 2 to 4 weeks. During this time, the plants were tended, and their response to the individual treatments was evaluated. Evaluation was carried out using a scale from 0 to 100. 100 means no emergence of the plants, or complete destruction of at least the aerial moieties, and 0 means no damage, or normal course of growth. […] The plants used in the greenhouse experiments were of the following species: [table]
# ECHCG [1] = assay: greenhouse pre-emergence herbicidal test; type: in vivo, Echinocloa crus-galli; details: pre-emergence method, scale from 0 to 100
# Excerpt: as §1
# ALOMY = assay: greenhouse post-emergence herbicidal test; type: in vivo, Alopercurus myosuroides; details: post-emergence method, scale from 0 to 100
# Excerpt: (§2) The seeds of the test plants were sown separately for each species. For the post-emergence treatment, the test plants were first grown to a height of 3 to 15 cm, depending on the plant habit, and only then treated with the active ingredients which had been suspended or emulsified in water. For this purpose, the test plants were either sown directly and grown in the same containers, or they were first grown separately as seedlings and transplanted into the test containers a few days prior to treatment. Depending on the species, the plants were kept at 10-25° C. or 20-35° C., respectively. The test period extended over 2 to 4 weeks. During this time, the plants were tended, and their response to the individual treatments was evaluated. Evaluation was carried out using a scale from 0 to 100. 100 means no emergence of the plants, or complete destruction of at least the aerial moieties, and 0 means no damage, or normal course of growth. […] The plants used in the greenhouse experiments were of the following species: [table]
# AVEFA = assay: greenhouse post-emergence herbicidal test; type: in vivo, Avena fatua; details: post-emergence method, scale from 0 to 100
# Excerpt: as §2
# ECHCG [2] = assay: greenhouse post-emergence herbicidal test; type: in vivo, Echinocloa crus-galli; details: post-emergence method, application rate 1000 g/ha, scale from 0 to 100
# Excerpt: as §2
Compound,herbicidal activity against APESV (APESV; application rate 500 g/ha),herbicidal activity against ECHCG (ECHCG [1]; application rate 500 g/ha),herbicidal activity against ALOMY (ALOMY; application rate 500 g/ha),herbicidal activity against AVEFA (AVEFA; application rate 500 g/ha),herbicidal activity against APESV (APESV; application rate 1000 g/ha),herbicidal activity against ECHCG (ECHCG [1]; application rate 1000 g/ha),herbicidal activity against ALOMY (ALOMY; application rate 1000 g/ha),herbicidal activity against AVEFA (AVEFA; application rate 1000 g/ha),herbicidal activity against ECHCG (ECHCG [2])
O=C(O)c1nc(C2CC2)ncc1-c1c(F)cc(F)cc1F [example 134],very good (a very good herbicidal activity is given at values of at least 85),very good (a very good herbicidal activity is given at values of at least 85),very good (a very good herbicidal activity is given at values of at least 85),very good (a very good herbicidal activity is given at values of at least 85),,,,,
O=C(O)c1nc(C2CC2)ncc1-c1ccccc1Cl [example 141],very good (a very good herbicidal activity is given at values of at least 85),very good (a very good herbicidal activity is given at values of at least 85),very good (a very good herbicidal activity is given at values of at least 85),very good (a very good herbicidal activity is given at values of at least 85),,,,,
COc1cccc(Cl)c1-c1cnc(C2CC2)nc1C(=O)O [example 178],very good (a very good herbicidal activity is given at values of at least 85),very good (a very good herbicidal activity is given at values of at least 85),good (A good herbicidal activity is given at values of at least 70),good (A good herbicidal activity is given at values of at least 70),,,,,
COC(=O)c1nc(C2CC2)ncc1-c1cc(Br)ccc1F [example 191],,,,,very good (a very good herbicidal activity is given at values of at least 85),very good (a very good herbicidal activity is given at values of at least 85),good (A good herbicidal activity is given at values of at least 70),good (A good herbicidal activity is given at values of at least 70),very good (a very good herbicidal activity is given at values of at least 85)
COC(=O)c1nc(C2CC2)ncc1-c1ccc(F)cc1F [example 192],very good (a very good herbicidal activity is given at values of at least 85),very good (a very good herbicidal activity is given at values of at least 85),very good (a very good herbicidal activity is given at values of at least 85),very good (a very good herbicidal activity is given at values of at least 85),,,,,
COC(=O)c1nc(C2CC2)ncc1-c1c(F)cc(F)cc1F [example 193],very good (a very good herbicidal activity is given at values of at least 85),very good (a very good herbicidal activity is given at values of at least 85),very good (a very good herbicidal activity is given at values of at least 85),very good (a very good herbicidal activity is given at values of at least 85),,,,,
COC(=O)c1nc(C2CC2)ncc1-c1c(Br)ccc(F)c1F [example 197],,,,,very good (a very good herbicidal activity is given at values of at least 85),very good (a very good herbicidal activity is given at values of at least 85),very good (a very good herbicidal activity is given at values of at least 85),very good (a very good herbicidal activity is given at values of at least 85),
COC(=O)c1nc(C2CC2)ncc1-c1c(F)cc(F)cc1Br [example 214],,,,,very good (a very good herbicidal activity is given at values of at least 85),very good (a very good herbicidal activity is given at values of at least 85),very good (a very good herbicidal activity is given at values of at least 85),very good (a very good herbicidal activity is given at values of at least 85),
COC(=O)c1nc(C2CC2)ncc1-c1cc(F)c(F)cc1Br [example 215],very good (a very good herbicidal activity is given at values of at least 85),very good (a very good herbicidal activity is given at values of at least 85),very good (a very good herbicidal activity is given at values of at least 85),very good (a very good herbicidal activity is given at values of at least 85),,,,,
O=C(OCc1ccccc1)c1nc(C2CC2)ncc1-c1ccccc1Cl [example 254],,,,,very good (a very good herbicidal activity is given at values of at least 85),very good (a very good herbicidal activity is given at values of at least 85),very good (a very good herbicidal activity is given at values of at least 85),very good (a very good herbicidal activity is given at values of at least 85),very good (a very good herbicidal activity is given at values of at least 85)
O=C(Oc1ccccc1)c1nc(C2CC2)ncc1-c1ccccc1Cl [example 255],,,,,very good (a very good herbicidal activity is given at values of at least 85),very good (a very good herbicidal activity is given at values of at least 85),very good (a very good herbicidal activity is given at values of at least 85),very good (a very good herbicidal activity is given at values of at least 85),very good (a very good herbicidal activity is given at values of at least 85)
C[Si](C)(C)CCOC(=O)c1nc(C2CC2)ncc1-c1ccccc1Cl [example 258],,,,,,very good (a very good herbicidal activity is given at values of at least 85),very good (a very good herbicidal activity is given at values of at least 85),very good (a very good herbicidal activity is given at values of at least 85),very good (a very good herbicidal activity is given at values of at least 85)
O=C(NO)c1nc(C2CC2)ncc1-c1ccccc1Cl [example 290],very good (a very good herbicidal activity is given at values of at least 85),very good (a very good herbicidal activity is given at values of at least 85),very good (a very good herbicidal activity is given at values of at least 85),very good (a very good herbicidal activity is given at values of at least 85),,,,,
O=C(O)c1nc(C2CC2)ncc1-c1c(Cl)cccc1C(F)(F)F [example 304],,,,,very good (a very good herbicidal activity is given at values of at least 85),,very good (a very good herbicidal activity is given at values of at least 85),very good (a very good herbicidal activity is given at values of at least 85),very good (a very good herbicidal activity is given at values of at least 85)
